We go through five compounds from patent publication US5458889A (priority 1986, dated 1995).

Like-named read-outs stand apart in the source and are kept apart here.

Type in all cases: cell-based
In data set [1] the test system is spermatozoa. Put plainly: total spermicidal test of IPPF (death of all spermatozoa of 0.2 ml sperm in less than 5 seconds). The note with it: for MIC: 5 seconds. On the procedure:
The MIC of a chemical compound depends on this compound, but also on the conditions in which it is used, i.e. on the galenical form including the composition.
(§1) The test is carried out on at least 6 sperms from various donors, satisfying the following minimal conditions from IPPF:
age of the sample: two hours;
[…] : 50 million spermatozoa;
mobility: 50% of the spermatozoa should move forward fastly when examined at 35°-37° C. in a recent sample;
viscosity: ejaculum conveniently liquefied, not filaceous and homogeneous-looking with the naked eye;
collected in sterile glass tubes hermetically closed, preserved at 37° C.
The MIC of various known spermicidal compounds were determined with the IPPF test. The following results have been obtained by 1 milliliter of composition reacting with 0.2 milliliter of sperm and by determining the minimal concentration of the spermicidal compounds that induces the death of all the spermatozoa in 5 seconds, and this with 6 sperms from various donors.
The same total spermicidal test of IPPF was carried out with 1 milliliter of composition already containing 0.0001% (in weight) of fluoride anion F^- reacting upon 0.2 milliliter of sperm, by determining the minimal concentration of the spermicidal compounds that induces the death of all the spermatozoa in 5 seconds, and this with 6 sperms from various donors.
This test consists in realizing a test identical to tests N^.
Under the same conditions previously described (Tests N^. 1 to 3), various perfluorinated benzalkonium chlorides were used as basic spermicidal compounds. It was thus shown that perfluorinated benzalkonium chlorides have a spermicide activity similar to the one of the mere benzalkonium chloride. Besides, this activity remains identical to itself under the conditions of test N^.
Test N^. 2 was also realized on perfluorinated benzalkonium chloride mixed with another chemical compound capable of emitting ion F^-.

Data set [2] deals with spermatozoa. Put plainly: IPPF spermicidal test on galenical preparations after in vitro simulation of in vivo conditions. The note with it: Test 6, form originally containing 0.45% F^-. The protocol: as §1
This test in vitro was conducted on galenical preparations including benzalkonium chloride as basic active ingredient, by determining the MIC of this benzalkonium chloride after simulation in vitro of the actual conditions in vivo (extraction, solubilization . . . ).
The percentages correspond to the proportions (in weight) of benzalkonium chloride in the solution used in vitro for the spermicidal test according to IPPF and obtained after simulation, the proportions being measured by titrating using a sample taken off from the solution.
The same conditions as during the comparative test N^. 5 were used, but from galenical forms each originally containing 0.45% (in weight) of fluoride anion F^-.

In data set [3] the test system is cells. Nature of the data set: Study of threshold of cytotoxicity (LDO).
For the next data set, the system named is poliomyelitis virus. The following applies: LiF, where present, 1 mg/l.
Data set [4] has as its system cells. Nature of the data set: Cell toxicity (Test 16). The note with it: cytomegalo virus section. An excerpt: The following results were obtained:
Data set [5] relates to spermatozoa. Nature of the data set: IPPF spermicidal test on galenical preparations after in vitro simulation of in vivo conditions. The note with it: Test 5, without activating ingredient.
Where [6] appears, read: Test 1, without F^-, 6 sperms from various donors.
Setting [7] is: Test 2, composition already containing 0.0001% (in weight) fluoride anion F^-, 6 sperms.
The mark [8] stands for this setting: final concentration 20 mg/l, contact time 180 min.
Where [9] appears, read: final concentration 50 mg/l, contact time 180 min.
The mark [10] stands for this setting: final concentration 100 mg/l, contact time 30 min.
Where [11] appears, read: final concentration 100 mg/l, contact time 60 min.
Where [12] appears, read: final concentration 100 mg/l, contact time 120 min.
Where [13] appears, read: final concentration 100 mg/l, contact time 180 min.

In turn, `F` [fluoride anion F^-] came in with a spermicide activity with spermatozoa [1] (IPPF test, at a titer of 5 ppm (5 milligrams per liter), 0.0833333 min) of 100%. The “spermicidal effect in presence of sodium borate” value with spermatozoa [1] (Test 3, sodium borate to complex ion F^-) is given as “totally disappeared”. In the data set with spermatozoa [1] (solution containing 0.0001% fluoride anion F^- alone), the “total spermicide activity according to the IPPF test” value was “do not have a total spermicide activity”.

Regarding Benzalkonium chloride, the MIC against spermatozoa [1] (setting [6]) is listed as 0.006 % in weight; in the data set with spermatozoa [1] (setting [7]), 0.002 % in weight. Also, the “total spermicide activity according to the IPPF test” value with spermatozoa [1] (solution containing 0.003% benzalkonium chloride alone) was “do not have a total spermicide activity”. Also, the “MIC of benzalkonium chloride” value in the data set on spermatozoa [2] (galenical form: cream) was 0.0030 % in weight; with spermatozoa [2] (galenical form: gel), 0.0033 % in weight; in the data set with spermatozoa [2] (galenical form: ovule), 0.0023 % in weight; in the data set with spermatozoa [2] (galenical form: soluble waffle), 0.0017 % in weight; in the data set with spermatozoa [2] (galenical form: tablet), 0.0025 % in weight; in the data set on spermatozoa [2] (galenical form: tampon), 0.0025 % in weight. The “MIC of benzalkonium chloride” value is recorded as 0.0083 % in weight in the data set on spermatozoa [5] (galenical form: cream); 0.0080 % in weight in the data set with spermatozoa [5] (galenical form: gel); 0.0063 % in weight in the data set with spermatozoa [5] (galenical form: ovule); 0.0080 % in weight in the data set on spermatozoa [5] (galenical form: soluble waffle); 0.0095 % in weight with spermatozoa [5] (galenical form: tablet); 0.0075 % in weight in the data set on spermatozoa [5] (galenical form: tampon). Besides, the “threshold of cytotoxicity (LDO)” value in the data set with cells [3] (after filtration) is reported as 0.01%; in the data set with cells [3] (before filtration) it was 0.05%. Further, the Viral titre result with poliomyelitis virus (final concentration 10 mg/l, contact time 180 min) was “≈ 0 PFU/ml”; with poliomyelitis virus (setting [8]), 0 PFU/ml; in the data set with poliomyelitis virus (setting [9]), 0 PFU/ml; in the data set on poliomyelitis virus (setting [10]), 0 PFU/ml; in the data set on poliomyelitis virus (setting [11]) it was 0 PFU/ml; with poliomyelitis virus (setting [12]), 0 PFU/ml. The compound further returned a Viral titre in the data set on poliomyelitis virus (setting [13]) of 0 PFU/ml. Further, the “Cell Toxicity” value in the data set with cells [4] stood at 0.05%.

Turning to Benzalkonium fluoride, the entries for the “threshold of cytotoxicity (LDO)” value with cells [3] (after filtration) and in the data set with cells [3] (before filtration) were 0.005% and 0.01%, respectively. Besides, the Viral titre with poliomyelitis virus (setting [8]) was 0 PFU/ml; in the data set with poliomyelitis virus (final concentration 50 mg/l, contact time 120 min) it was 0 PFU/ml; in the data set on poliomyelitis virus (setting [9]), 0 PFU/ml; with poliomyelitis virus (setting [10]) it was 0 PFU/ml; in the data set on poliomyelitis virus (setting [11]) it was 0 PFU/ml; with poliomyelitis virus (setting [12]), 0 PFU/ml. Also, the Viral titre with poliomyelitis virus (setting [13]) came out at 0 PFU/ml. For the same compound, the “Cell Toxicity” value in the data set with cells [4] is reported as 0.05%.

As for nonoxynol 9, the MIC with spermatozoa [1] (setting [6]) was 0.006 % in weight; with spermatozoa [1] (setting [7]), 0.003 % in weight.

As for p-menthanylphenylpolyoxyethylene ether, the MIC against spermatozoa [1] (setting [6]) stood at 0.006 % in weight; in the data set with spermatozoa [1] (setting [7]), 0.003 % in weight.
